Experimental data reported in PMC6468270, “Recognition of ASF1 by Using Hydrocarbon‐Constrained Peptides” (Chembiochem, 2019).
Values joined by “and” are separate entries in the source; they are usually repeats but may differ in a detail not shown here. Identical values can stand only once. Like-named read-outs stand apart in the source and are kept apart here. Blank lines part the entries; values can stand above or below the molecule they belong to. Starred links: 1 amine or outer side, 2 acyl side, 3 side chain; linkers in the order of their positions; H or OH if unused. Positions of bridges follow the written chain, without caps; N, C: chain ends. Non-standard residues stand in square brackets, D forms with d. Residues, ends and D or L forms follow the SMILES beside them. Nle(6-ylidene) = O=C([C@H](CCCC=[*:3])N[*:1])[*:2]

Legend:
ASF1A(1–156) [1] = biological target: T1, ASF1A(1–156) (Homo sapiens, UniProt Q9Y294); experiment: Isothermal titration calorimetry (ITC) of peptide binding to ASF1; conditions: 20°C, 50mM Tris-HCl pH 7.5, protein 10µM, peptide 200µM, at least in duplicate
T1 construct: Recombinant human ASF1 (ASF1A(1-156)) was purified as already described; (His)6-GST-TEV site (N, cleaved yes); made in house; host or cells: E. coli (pETM30 plasmid)
Procedure: Binding of the peptides to ASF1 was then assessed by isothermal titration calorimetry (ITC; Figure 3, Table 1). […] Strikingly, the binding potency was similar in all three cases, ΔG=−7.3 to −8.0 kcal M ^−1, despite H3_118–135(St123–127)GCA adopting a more helical conformation and therefore presumably being more pre‐organised towards ASF1 recognition. Analyses of the thermodynamic determinants of binding reveal enthalpy–entropy compensation. […] In contrast, for the more helical peptide, H3_118–135(St123–127)GCA, the entropy of binding (TΔS=3.1 kcal M ^−1) was favourable, consistent with the anticipated effect of pre‐organisation; however, the enthalpy of binding (ΔH=−4.2 kcal M ^−1) was less favourable than for the less helical variants. […] Such an effect might arise because the less helical peptides H3_118–135 and H3_118–135(St120–124) form enthalpically favourable backbone hydrogen bonds upon a change in conformation to the helix, whereas the more pre‐organised helix H3_118–135(St123–127)GCA neither gains new hydrogen bonds nor undergoes an entropically costly change in conformation on binding ASF1. Alternatively, differential changes in the solvation of the peptides upon binding could account for such a difference in thermodynamic signature. Either way, the results underscore a limitation in correlating conformational stability against binding potency for the unconstrained (H3_118–135) and constrained (H3_118–135(St123–127)GCA) peptides; although the helical conformation is preferred for H3_118–135(St123–127)GCA, this can be considered as arising from an increase in energy (or destabilisation) of nonhelical conformations for this sequence as opposed to preorganisation of the wild‐type sequence. […]
(§1) Expression and Purification of ASF-1
(§2) Recombinant human ASF1 (ASF1A(1-156)) was purified as already described from expression in E. coli of a (His)6–GST –Tev site–Asf1 fusion protein using the pETM30 plasmid. Briefly, soluble (His)6-tagged GST fusion protein was purified on reduced glutathione (GSH) agarose beads (Sigma).
(§3) After cleavage with recombinant (His)6-TEV protease at room temperature overnight, the (His)6-GST tag and the protease were trapped in a Ni-NTA agarose column (Qiagen). The flow-through fraction containing ASF1 proteins was further purified by anion exchange chromatography using a Resource Q 6mL column (GE Healthcare). ASF1 was then concentrated using an Amicon device (Millipore) and the buffer was replaced with a 50mM Tris-HCl (pH7.5). Unlabled ASF1 used for ITC experiments was purified from pellets of bacteria grown in LB medium, and uniformly labelled ASF1 from bacteria gown in M9 minimal media supplemented with (15NH4)Cl (Eurisotop,0.5 g.l−1) as the sole nitrogen source.
(§4) (1 picture or pasted object on this page, not shown here)
Isothermal Titration Calorimetry
All IsoThermal Calorimetry (ITC) experiments were performed in a VP-ITC titration calorimeter (Microcal/Malvern) at 20°C, in a 50mM Tris-HCl pH 7.5 buffer. Protein and peptides concentrations were set to values 10µM and 200µM, respectively. Protein and peptide samples were prepared in the same buffer and degassed (ThermoVac, Malvern). After equilibrating the cell at […], the rotating syringe (310rpm) injected at intervals of 280s, 6µL aliquots of peptide solution into the Asf1 previously introduced in the sample cell until saturation was observed. Raw ITC data were processed with the Origin 7.0 Software (OriginLab, Malvern) using the One-Set of Sites fitting model. All ITC experiments were performed at least in duplicate. […]
(§5) Intact peptide content was determined relative to the t=0 time-point based on HPLC peak areas. Curves were fitted using an exponential decay function in Origin Pro 9.

[2] = Circular dichroism (CD), % helicity; format: physicochemical; conditions: 100 μM peptide in 40 mM sodium phosphate, pH 7.5, 293 K, scans in duplicate
Procedure: The helical character of all three peptides was investigated by using circular dichroism (CD) in both 40 mM phosphate buffer and trifluoroethanol (TFE). […] (Figure 2).
Circular Dichroism was performed on an Applied Photophysics ChiraScan Apparatus and Software.
For each scan, the following parameters were used: 180-260 nm range; point time 1 s; 1 nm per point; step = 1; bandwidth 4.3 nm; path length 1 mm; temperature 20 °C. Scans were done in duplicate.
Samples were dissolved in 4 0 mM sodium phosphate b uffer pH 7.50 at concentration of 100 μM.
Where θ = circular dichroism at a given wavelength, c = molar concentration, l = path length in cm, R = number of residues in the peptide sequence.
Figure ESI 1. Conformational analyses of histone H3 variant peptides by circular dichroism (CD) analyses (peptide concentration =100 μM, 40 mM sodium phosphate (or 40 mM sodium phosphate/ […]
as §1, §2, §3, §4

trypsin = experiment: Proteolysis assay with trypsin; format: in vitro ADME
Procedure: (§6) The proteolytic stability of the peptides was also investigated by using trypsin and proteinase K. The unconstrained H3_118–135 was cleaved within 14 minutes by both proteases (Figure 4, Table 2 and the Supporting Information), whereas the constrained peptides had increased stability depending on the position of the constraint. […]
(§7) The experiment wells contained aqueous buffer (50 mM Tris, pH 8, 100 mM NaCl, 170 µL) to which peptide solution (10 µL, 1 mM in H2O) and enyzme solution (20 µL 0.5 µg/ml trypsine or 20 µL 1 µg/ml proteinase K) was added. Final concentrations in the experiment wells were 50 µM peptide, 0.05 µg/ml trypsine or 0.1 µg/ml proteinase K. A control experiment was started at the same time without the enzymes. 10 µL aliqouts of the reaction were quenched at different time-points using 90 µL 2% TFA solution. Samples were measured using LC-ESI-MS on a Bruker Maxis impact mass spectrometer equipped with a Thermo Ultimate 3000 UPLC. All samples were run on an Acquity BEH C4 column using a gradient of 1-90% B (A: H2O + 0.1 % formic acid, B: ACN + 0.1 % formic acid) over 4 minutes.
as §5

proteinase K [3] = experiment: Proteolysis assay with proteinase K; format: in vitro ADME; conditions: Tritirachium album (Parengyodontium album); fitted half-life; 50 mM Tris, pH 8, 100 mM NaCl, room temperature, 50 M peptide, 0.1 g/ml proteinase K (µ lost in print); LC-ESI-MS, intact peptide relative to t=0, exponential decay fit; read-out: Proteinase K t 1/2
Procedure: as §6, §7, §5

ASF1A(1–156) [4] = biological target: T1, ASF1A(1–156); experiment: NMR chemical-shift-perturbation study with 15N labelled ASF1A(1–156); format: binding; conditions: uniformly 15N labelled ASF1A(1–156), mapped on PDB 2IIJ
Procedure: In order to confirm the binding mode of the constrained peptides with ASF1, chemical‐shift‐perturbation studies were carried out for all three peptides (Figure S2) by using uniformly ^15N labelled ASF1A(1–156). The chemical‐shift variation was mapped onto the protein structure of ASF1A–H3 (PDB ID: 2IIJ). All three peptides induced the highest values of chemical‐shift variation and a “slow‐exchange” regime for the ASF1 residues defining the already well characterised H3 binding site (V45–E51, V90–I97, R108–Y111, V146–T147),37, 45 thus confirming the preservation of the specific binding mode for the constrained peptides.

proteinase K [5] = biological target: proteinase K (Parengyodontium album, UniProt P06873); experiment: Proteolysis assay with proteinase K; format: in vitro ADME; conditions: 50 mM Tris, pH 8, 100 mM NaCl, room temperature, LC-ESI-MS
Procedure: as §6, §7, §5

ASF1A(1–156) [6] = biological target: T2, ASF1A(1–156) (UniProt Q9Y294 1-156, uniformly 15N labelled (in the chemical-shift-perturbation study only)); experiment: ITC; H3 peptides with ASF1A(1–156); exothermic, fitted to a 1:1 binding isotherm; conditions not shown; conditions: both partners purified
T2 construct: ASF1A (anti-silencing function 1A), histone chaperone, conserved N-terminal domain, residues 1-156; The same construct limits as in PDB 2IIJ; also called anti-silencing function 1

[7] = trypsin, fitted half-life, 50 mM Tris, pH 8, 100 mM NaCl, room temperature, 50 M peptide, 0.05 g/ml trypsine (µ lost in print), LC-ESI-MS, intact peptide relative to t=0, exponential decay fit, read-out: Trypsin t 1/2

T2 sequence (Q9Y294 1-156): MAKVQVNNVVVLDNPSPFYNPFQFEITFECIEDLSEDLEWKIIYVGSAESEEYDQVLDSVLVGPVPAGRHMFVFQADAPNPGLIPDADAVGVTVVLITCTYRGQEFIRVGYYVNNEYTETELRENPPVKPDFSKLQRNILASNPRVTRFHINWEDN
T1 sequence (Q9Y294 1-156): as above
Chain of proteinase K (Parengyodontium album, UniProt P06873) (P06873 106-384, species assumed): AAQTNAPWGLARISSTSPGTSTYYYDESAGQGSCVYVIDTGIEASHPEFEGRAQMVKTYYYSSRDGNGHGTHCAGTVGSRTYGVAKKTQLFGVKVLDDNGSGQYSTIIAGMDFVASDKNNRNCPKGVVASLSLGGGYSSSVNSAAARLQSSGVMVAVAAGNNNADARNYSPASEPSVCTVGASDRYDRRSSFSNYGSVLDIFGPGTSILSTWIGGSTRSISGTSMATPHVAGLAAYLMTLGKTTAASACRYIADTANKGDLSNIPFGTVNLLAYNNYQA

Molecule: CC[C@H](C)[C@H](NC(=O)[C@H](CCCNC(=N)N)NC(=O)[C@H](CCCNC(=N)N)NC(=O)[C@H](C)NC(=O)[C@H](CC(C)C)NC(=O)[C@H](CCC(N)=O)NC(=O)[C@@H]1CCCC=CCCC[C@H](NC(=O)[C@H](C)NC(=O)CNC(C)=O)C(=O)NCC(=O)N[C@@H](CCCCN)C(=O)N[C@@H](CC(=O)O)C(=O)N1)C(=O)N[C@@H](CCCNC(=N)N)C(=O)NCC(=O)N[C@@H](CCC(=O)O)C(=O)N[C@@H](CCCNC(=N)N)C(=O)N[C@@H](C)C(N)=O [H3_118–135(St120–124)] (Ac-GA[Nle(6-ylidene)]GKD[Nle(6-ylidene)]QLARRIRGERA-NH2; staple 3-7)
ΔG (ASF1A(1–156) [1]): −8.3±0.07 kcal M ^−1
% helicity [2]: 20%
half-life at 50 µM (trypsin; [7]): 14.9 ± 2.5 min
half-life at 50 µM (proteinase K [3]): 65.8 ± 15.7 min
chemical-shift variation at the B domain binding site (S59–F72) of ASF1 (nonspecific binding) (ASF1A(1–156) [4]): exhibited chemical‐shift variations

Molecule: Ac-GAMGKDIQLARRIRGERA-NH2 [H3_118–135]
TΔS (ASF1A(1–156) [1]): −6.4 to −6.7 kcal M ^−1 and −6.4±0.51 kcal M ^−1
ΔG (ASF1A(1–156) [1]): −8.0±0.14 kcal M ^−1
ΔH (ASF1A(1–156) [1]): −14.4 to −15.0 kcal M ^−1 and −14.4±0.37 kcal M ^−1
% helicity [2]: 15%
half-life at 50 µM (trypsin; isolated enzyme trypsin, pH 8): 13.3 ± 1.5 min
time within which peptide was cleaved by proteinase K (proteinase K [5]): ≤ 14 min
half-life at 50 µM (proteinase K [3]): 12.2 ± 0.8 min
chemical-shift variation at the B domain binding site (S59–F72) of ASF1 (nonspecific binding) (ASF1A(1–156) [4]): exhibited chemical‐shift variations

Molecule: CC[C@H](C)[C@H](NC(=O)[C@H](CCCNC(=N)N)NC(=O)[C@H](CCCNC(=N)N)NC(=O)[C@@H]1CCCC=CCCC[C@H](NC(=O)[C@H](CCCCN)NC(=O)CNC(=O)[C@H](CCSC)NC(=O)[C@H](C)NC(=O)CNC(C)=O)C(=O)N[C@@H]([C@@H](C)CC)C(=O)N[C@@H](CCC(N)=O)C(=O)N[C@@H](CC(C)C)C(=O)N1)C(=O)N[C@@H](CCCNC(=N)N)C(=O)NCC(=O)N[C@@H](CCC(=O)O)C(=O)N[C@@H](CCCNC(=N)N)C(=O)N[C@@H](C)C(=O)NCC(=O)N[C@@H](CS)C(=O)N[C@@H](C)C(N)=O [H3_118–135(St123–127)GCA] (Ac-GAMGK[Nle(6-ylidene)]IQL[Nle(6-ylidene)]RRIRGERAGCA-NH2; staple 6-10)
TΔS (ASF1A(1–156) [1]): 3.1 kcal M ^−1 and 3.1±0.2 kcal M ^−1
ΔG (ASF1A(1–156) [1]): −7.3±0.05 kcal M ^−1
ΔH (ASF1A(1–156) [1]): −4.2 kcal M ^−1 and −4.2±0.08 kcal M ^−1
% helicity [2]: 29%
half-life at 50 µM (trypsin; [7]): 40.5 ± 16.9 min
half-life at 50 µM (proteinase K [3]): 23.1 ± 2.6 min
chemical-shift variation at the B domain binding site (S59–F72) of ASF1 (nonspecific binding) (ASF1A(1–156) [4]): no chemical‐shift variation

Kd (ASF1A(1–156) [6]): 1340 ± 330 nM
dH (ASF1A(1–156) [6]): -14.4 ± 0.37 kcal/M
stoichiometry N (ASF1A(1–156) [6]): 0.94 ± 0.04
B1: H3_(118–135) (peptide, UniProt P68431 119-136, looked up)
peptide: TIMPKDIQLARRIRGERA
notes: histone H3, C-terminal helix peptide, residues 118-135; also called histone H3(118–135); unconstrained H3_(118–135); source: synthetic peptide (solid-phase peptide synthesis)
